{"source": "paper PMC9065678", "about": "“BI 1015550 is a PDE4B Inhibitor and a Clinical Drug Candidate for the Oral Treatment of Idiopathic Pulmonary Fibrosis” (Frontiers in Pharmacology, 2022)", "key": {"Suncus murinus": {"test_system": "Suncus murinus", "experiment": "Determination of emesis in male Suncus murinus", "assay_type": "in vivo", "experimental": "All animals (50–55 g) were dosed orally by gavage immediately before transfer to whole-body plethysmography boxes. The volume of application was set to 10 mL/kg body weight. For assessment of the emetic events, animals were placed in the whole-body plethysmography boxes without any access to feed or water for 3 h. The whole-body plethysmography system used to detect emetic events consisted of five major components: 1) plethysmography boxes for mice (Buxco®, PLY 3211-F, Data Sciences International, New Brighton, MN, United States), 2) a pressure transducer with an amplifier, 3) a bias flow regulator, 4) a PC-based system to receive and process the amplified signals, and 5) a PC-based data acquisition system (NOTOCORD-hem™, Instem, Stone, United Kingdom) to process signals, as well as in-house-developed software to detect and identify changes in breathing pattern. Retching and vomiting induced characteristic changes in the breathing pattern of animals and these were recorded by whole-body plethysmography and translated for NOTOCORD recording. A number of preset definitions (computer-based criteria) characteristic for emetic events were determined. Peaks that met the set internal computer-based criteria and exceeded the threshold of more than 600 mV were labeled as emetic events by the system on a standard basis."}, "[1]": {"test_system": "silica-induced lung fibrosis", "experiment": "Silica-induced lung inflammation and fibrosis in the mouse", "assay_type": "in vivo", "details": "mice", "experimental": "BI 1015550 was given at doses of 0.25, 0.75, and 2.5 mg/kg b.i.d. in Natrosol 0.5% (10 mL/kg) starting from day 10 after silica instillation until day 30 (therapeutic regimen). 8-week-old BL6 mice (mixed sex, Janvier Labs, Le Genest-Saint-Isle, France) were used. Details of the experimental methods are described elsewhere ([Lo Re et al., 2010]). Briefly, mice received silica particles at 2.5 mg/mouse by intranasal instillation. Control mice received the respective saline solution by intranasal instillation. Mice were killed 30 days after silica administration and macroscopic changes were recorded at post-mortem analysis. Lung weight was measured, BALF for total cell and differential cell counts as well as myeloperoxidase (MPO) activity and keratinocyte-derived cytokine (KC, the counterpart of human GRO protein) determination was generated, and lung histology (staining with HE and chromotrope-aniline blue with semi-quantitative analysis for the estimation of inflammation, granuloma, and fibrosis scores was done."}, "[2]": {"test_system": "LPS-stimulated TNF-α release", "experiment": "LPS-induced TNF-α release in rat whole blood", "assay_type": "cell-based", "details": "LPS 10 µg/mL", "experimental": "Heparinized whole blood was collected from the Aorta abdominalis of WI (Han) male rats (Charles River Laboratories, Sulzfeld, Germany) and from healthy male human donors, and treated with 1 µL (rat) or 2.5 µL (human) of BI 1015550 or vehicle [final DMSO concentration 0.5% (v/v)]. Final assay volumes were 200 μL (rat) and 500 μL (human). After incubation for 30 min at 37°C, 95% humidity, and 5% CO2, cultures were treated with LPS [final concentration 10 µg/mL (rat), 0.1 µg/mL (human)] or saline. After 7 h, plates were centrifuged at 3.200 × g at 4°C for 10 min and plasma was used for cytokine measurement. Meso Scale Discovery (MSD) (Rockville, MD, United States) rat and human pro-inflammatory panels were used for detection of TNF-α and IL-6 in rat plasma [diluted 1:2 (v/v)]) and human plasma [negative control undiluted, other samples diluted 1:200 (v/v)] according to the manufacturer’s instructions."}, "[3]": {"details": "0.25 mg/kg b.i.d. oral day 10–30"}, "[4]": {"details": "0.75 mg/kg b.i.d. oral day 10–30"}, "[5]": {"details": "2.5 mg/kg b.i.d. oral day 10–30"}}, "note": "Marks after values point to notes of the source that are not given here.", "data": [{"smiles": "[O-][S+]1CCc2nc(N3CCC(c4ncc(Cl)cn4)CC3)nc(NC3(CO)CCC3)c21", "note": "(stereo not drawn) [BI 1015550]", "values": [{"measurement": "Animals showing emesis", "setting": "Suncus murinus; 0.5 mg/kg oral, 3 h observation, data not shown", "value": "3 of 24"}, {"measurement": "Mean emetic events per animal", "setting": "Suncus murinus; 0.5 mg/kg oral, data not shown", "value": 0.1}, {"measurement": "Animals showing emesis", "setting": "Suncus murinus; 10 × ED50 oral (BI 1015550 6 mg/kg, roflumilast 10 mg/kg)", "value": "5 out of 24"}, {"measurement": "% of vomiting animals, emesis at 10 × ED50", "setting": "Suncus murinus; oral (BI 1015550 6 mg/kg, roflumilast 10 mg/kg), 24 animals", "value": 21, "unit": "%"}, {"measurement": "Fibrosis score, % change related to control animals", "setting": "[1]; [3]", "value": 5, "unit": "%"}, {"measurement": "Granuloma score, % change related to control animals", "setting": "[1]; [3]", "value": "–16%"}, {"measurement": "Inflammation score, % change related to control animals", "setting": "[1]; [3]", "value": "–4%"}, {"measurement": "KC in BALF, % change related to control animals", "setting": "[1]; [3]", "value": 4, "unit": "%"}, {"measurement": "Lung weight, % change related to control animals", "setting": "[1]; [3]", "value": "–57%"}, {"measurement": "Lymphocytes in BALF, % change related to control animals", "setting": "[1]; [3]", "value": "–18%"}, {"measurement": "MPO in BALF, % change related to control animals", "setting": "[1]; [3]", "value": "–2%"}, {"measurement": "Macrophages in BALF, % change related to control animals", "setting": "[1]; [3]", "value": "–29%"}, {"measurement": "Neutrophils in BALF, % change related to control animals", "setting": "[1]; [3]", "value": "–35%"}, {"measurement": "Total cells in BALF, % change related to control animals", "setting": "[1]; [3]", "value": "–27%"}, {"measurement": "Fibrosis score, % change related to control animals", "setting": "[1]; [4]", "value": "–10%"}, {"measurement": "Granuloma score, % change related to control animals", "setting": "[1]; [4]", "value": "–11%"}, {"measurement": "Inflammation score, % change related to control animals", "setting": "[1]; [4]", "value": 4, "unit": "%"}, {"measurement": "KC in BALF, % change related to control animals", "setting": "[1]; [4]", "value": "–39%"}, {"measurement": "Lung weight, % change related to control animals", "setting": "[1]; [4]", "value": "–46%"}, {"measurement": "Lymphocytes in BALF, % change related to control animals", "setting": "[1]; [4]", "value": 49, "unit": "%"}, {"measurement": "MPO in BALF, % change related to control animals", "setting": "[1]; [4]", "value": "–22%"}, {"measurement": "Macrophages in BALF, % change related to control animals", "setting": "[1]; [4]", "value": "–11%"}, {"measurement": "Neutrophils in BALF, % change related to control animals", "setting": "[1]; [4]", "value": 8, "unit": "%"}, {"measurement": "Total cells in BALF, % change related to control animals", "setting": "[1]; [4]", "value": "–13%"}, {"measurement": "Fibrosis score, % change related to control animals", "setting": "[1]; [5]", "value": "–15%"}, {"measurement": "Granuloma score, % change related to control animals", "setting": "[1]; [5]", "value": "–32%"}, {"measurement": "Inflammation score, % change related to control animals", "setting": "[1]; [5]", "value": "–19%"}, {"measurement": "KC in BALF, % change related to control animals", "setting": "[1]; [5]", "value": "–27%"}, {"measurement": "Lung weight, % change related to control animals", "setting": "[1]; [5]", "value": "–46%"}, {"measurement": "Lymphocytes in BALF, % change related to control animals", "setting": "[1]; [5]", "value": "–12%"}, {"measurement": "MPO in BALF, % change related to control animals", "setting": "[1]; [5]", "value": "–34%"}, {"measurement": "Macrophages in BALF, % change related to control animals", "setting": "[1]; [5]", "value": "–38* %"}, {"measurement": "Neutrophils in BALF, % change related to control animals", "setting": "[1]; [5]", "value": "–46* %"}, {"measurement": "Total cells in BALF, % change related to control animals", "setting": "[1]; [5]", "value": "–28%"}, {"measurement": "Extent of inhibition of TNF-α release", "setting": "[2]", "value": "completely inhibited"}, {"measurement": "IC50", "setting": "[2]", "value": 91, "unit": "nM"}]}]}
